Source: US20240252496A1, “SELECTIVE HYPOTHALAMUS PERMEABLE HDAC6 INHIBITORS FORTREATMENT OF LEPTIN-RESISTANT OBESITY” (The Children’s Medical Center Corporation, priority 2022, published 2024)

Assays:
HDAC6 [1] = biological target: T1, HDAC6 (Mus musculus (Mouse), UniProt Q9Z2V5); assay: HDAC6 inhibition in hypothalamus and other brain regions (Ac-tubulin); design: species or system mice; settings: in vivo
DMH neurons = assay: ACY775-responsive DMH neurons in TRAP2 DIO mice (c-fos, HDAC6 depletion, caspase3 ablation); assay type: in vivo
Experimental: (§1) Following the bilateral injection of AAV-sgHDAC6 into the arcuate nucleus of Agrp-ires-cre::LSL-Cas9-GFP (Agrp-Cre^+/−::Cas9^+/−) or control LSL-Cas9-GFP (Cas9^+/−) mice, immunostaining to detect the expression of mCherry and GFP was performed. AAV-sg-HDAC6 injected Agrp-Cre^+/−::Cas9^+/− (HDAC6^Agrp-Δ) and Cas9^+/− (HDAC6^WT) DIO mice (n=7 for each group) were fasted for 24 hours, and injected with ACY775 (10 mg/kg. i.p). Hourly total dark cycle food intake (g) (n=7 for each group) of these mice after ACY775 injection was measured. Body weight of AAV-sg-HDAC6 injected HDAC6^Agrp-Δ (n=11) and HDAC6^WT (n=6) mice were measured during 3 weeks of ACY775 (10 mg/kg/day, i.p.) treatment. Daily average food intake of HDAC6^Agro-Δ (n=11) and HDAC6^WT (n=6) mice was measured during 3 weeks of ACY775 (10 mg/kg/day, i.p.) treatment. 24-hour food intake average of HDAC Agrp- and HDAC6^WT mice during the 3 weeks of ACY775 treatment was assessed. Serum leptin level (ng/ml) of HDAC6^Agrp-Δ and HDAC6^WT mice after 2 weeks of ACY775 treatment (n=13 for HDAC6^WT and n=18 for HDAC6^Agrp-Δ) was measured. Lean mass (g); fat mass; and fat percentage (%) of HDAC Agrp- and HDAC6^WT DIO mice after 3 weeks of ACY775 treatment was measured by DEXA scan. The HDAC6 inhibitor responsive neurons in the dorsomedial hypothalamus (DMH) were assessed. Immunostaining and quantification of c-Fos expression was performed in the DMH of DIO mice following one-time ACY775 treatment (10 mg/kg, i.p.).
Coordinates used for aav-sg-HDAC6 injection into the DMH of c-Fos-iCreER::LSL-Cas9-GFP (TRAP2-Cas9) mouse, mCherry immunostaining in the aav-sg-HDAC6 injected TRAP2-cas9 obese mice, which were treated three weeks earlier with one dose of ACY775 (10 mg/kg, i.p.) (TRAP2-HDAC6^DMH-Δ) or vehicle (TRAP2-HDAC6^WT), followed by 4-Hydroxytamoxifen (4-OHT) injection, were assessed. TRAP2-HDAC6^WT and TRAP2-HDAC6^DMH-Δ mice were fasted 24-h and treated with ACY775 (10 mg/kg, i.p.). Hourly and total dark cycle food intake (g) (n=4 for each group) was determined for these mice after ACY775 injection. Daily body weight of TRAP2-HDAC6^DMH-Δ (n=10) or TRAP2-HDAC6^WT (n=11) DIO mice was measured during 2 weeks of ACY775 (10 mg/kg/day, i.p) treatment. Daily average food intake of TRAP2-HDAC6^DMH-Δ (n=10) or TRAP2-HDAC6^WT (n=11) DIO mice was measured during 2 weeks of ACY775 treatment.
To investigate whether activity of other neuronal populations are altered after HDAC6 inhibitor treatment, c-fos staining was performed in the whole brain of DIO mice, which were acutely treated with ACY775. […] Some of the DMH neurons express high levels of LepRb and involved in regulation of appetite […]. […]

HDAC6 in AgRP neurons = assay: DIO mice with HDAC6 deleted in AgRP neurons (HDAC6^Agrp-Δ); assay type: in vivo
Experimental: Design, validation, and stereotaxic injection of AAV viral vector carrying the guide RNAs targeting the mouse HDAC6 genomic locus. Three designed sgRNAs were concatenated and constructed into an AAV vector carrying a cre-enabled mCherry fluorescent marker.
as §1

HDAC6 [2] = biological target: T1, HDAC6; assay: LepRb acetyl-lysine immunoblotting in HEK293 cells; assay type: cell-based; settings: 200 nM, 0.5-3 h
Experimental: HEK293 cells were transfected with the plasmids and were treated with vehicle or ACY775. Subsequently Flag immunoprecipitation was used to pull down LepRb followed by Ac^Lys or Flag immunoblotting.
To test whether HDAC6 can deacetylate LepRb, HEK293 cells were transfected with plasmids (LepRb-Flag, HA-p300 and HDAC6-myc). LepRb was immunoprecipitated by Flag antibodies, which was followed by acetyl-lysine (Ac^Lys) or immunoblottings.
Next, cells were transfected with plasmids (LepRb-Flag, HA-p300 and HDAC6-myc) and subsequently treated with ACY775 ([…]) for 0.5, 1, 2 and 3 h. […] Next, to investigate whether HDAC6 has any effect on LepRb tyrosine phosphorylation, which is indicative of LepRb activation, HEK 293 cells were transfected with LepRb and HDAC6-Myc plasmids in the indicated order and the cells stimulated with leptin (200 ng/ml) for 10 and 60 minutes. The Flag immunoprecipitates were exposed to phospho-tyrosine (p^Tyr) immunoblotting.

T1 sequence (Q9Z2V5 whole entry): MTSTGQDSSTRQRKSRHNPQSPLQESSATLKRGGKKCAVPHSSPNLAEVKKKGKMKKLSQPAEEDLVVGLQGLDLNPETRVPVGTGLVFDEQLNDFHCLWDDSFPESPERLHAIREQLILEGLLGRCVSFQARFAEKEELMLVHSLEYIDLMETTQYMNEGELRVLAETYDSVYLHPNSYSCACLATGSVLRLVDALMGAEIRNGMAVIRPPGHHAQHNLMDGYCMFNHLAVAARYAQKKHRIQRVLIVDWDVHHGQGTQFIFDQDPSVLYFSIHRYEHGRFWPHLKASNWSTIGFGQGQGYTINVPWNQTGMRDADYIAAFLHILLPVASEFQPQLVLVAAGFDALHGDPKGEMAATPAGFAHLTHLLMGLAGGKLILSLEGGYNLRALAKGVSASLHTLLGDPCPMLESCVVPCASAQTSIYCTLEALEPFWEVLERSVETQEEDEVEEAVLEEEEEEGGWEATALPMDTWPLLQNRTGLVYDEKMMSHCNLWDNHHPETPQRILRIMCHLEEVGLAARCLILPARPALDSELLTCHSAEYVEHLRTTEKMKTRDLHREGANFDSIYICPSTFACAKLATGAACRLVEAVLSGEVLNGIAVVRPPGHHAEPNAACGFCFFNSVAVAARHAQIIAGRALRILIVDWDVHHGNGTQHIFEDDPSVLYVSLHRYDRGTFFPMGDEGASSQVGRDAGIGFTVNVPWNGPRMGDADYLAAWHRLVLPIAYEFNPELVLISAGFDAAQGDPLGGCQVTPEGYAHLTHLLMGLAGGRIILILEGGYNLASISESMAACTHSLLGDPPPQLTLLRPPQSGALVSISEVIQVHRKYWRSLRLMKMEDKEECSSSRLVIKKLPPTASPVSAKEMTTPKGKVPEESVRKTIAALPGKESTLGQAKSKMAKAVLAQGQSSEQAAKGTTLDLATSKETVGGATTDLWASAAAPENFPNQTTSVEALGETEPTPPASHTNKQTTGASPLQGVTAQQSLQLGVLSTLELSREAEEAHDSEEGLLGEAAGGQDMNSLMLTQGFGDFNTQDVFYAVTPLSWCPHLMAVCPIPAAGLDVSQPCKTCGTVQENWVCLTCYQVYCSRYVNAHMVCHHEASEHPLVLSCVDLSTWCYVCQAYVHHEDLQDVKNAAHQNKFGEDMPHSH

`O=C(CCCCCCNC(=O)c1cnc(N(c2ccccc2)c2ccccc2)nc1)NO` [Ricolinostat] was tested, and the “HDAC6 inhibition in the hypothalamus” value (HDAC6 [1]) was “nor show HDAC6 inhibition in the hypothalamus”.
With `O=C(NO)c1cnc(NC2(c3cccc(F)c3)CCCCC2)nc1` [ACY775, 2-[[1-(3-fluorophenyl)cyclohexyl]amino]-N-hydroxy-5-pyrimidinecarboxamide] the “food intake in fasted caspase3^on-DMH vs caspase3^off-DMH mice” value (DMH neurons; 10 mg/kg i.p.) was “significantly higher than caspase3^off-DMH mice”, the “weight and food intake in TRAP2-HDAC6^DMH-Δ and TRAP2-HDAC6^WT mice” value (DMH neurons; 2 weeks, 10 mg/kg/day i.p.) was “lost weight and food intake was reduced equally in both groups” and the “c-fos positive cells in DMH” value (DMH neurons; DIO mice, acute treatment, fasting) was “major increase in c-fos positive cell number”. The “body weight and food consumption in caspase3^on-DMH mice” value (DMH neurons; chronic, 10 mg/kg/day i.p.) was “neither reduced the body weight nor the food consumption”, the “suppression of food intake after a single dose in HDAC6^Agrp-Δ DIO mice” value (HDAC6 in AgRP neurons; ACY775 10 mg/kg i.p., fasted) was “almost complete resistance to ACY755-induced suppression of food intake” and the “anti-obesity effects in HDAC6^Agrp-Δ vs HDAC6^WT DIO mice” value (HDAC6 in AgRP neurons; chronic treatment) was “Significantly attenuated effects of ACY775 on all the parameters”. For the same compound, the “deacetylation of LepRb” value (HDAC6 [2]) was “completely block deactylation of LepRb”.
